From ChEMBL document CHEMBL1139052, “Synthesis of a novel inhibitor against MRSA and VRE: preparation from zerumbone ring opening material showing histidine-kinase inhibition” (Bioorg Med Chem Lett, 2007)
Values after ≈ are worked out from the molar mass of the structure shown. Values joined by “and” are separate entries in the source; they are usually repeats but may differ in a detail not shown here. Identical values can stand only once.

Legend:
[1] = tested on: Enterococcus faecalis; assay: Antibacterial activity against vancomycin-resistant Enterococcus faecalis NCTC-12201 after 18 hrs by broth microdilution method; type: functional
[2] = tested on: Staphylococcus aureus; assay: Antibacterial activity against methicillin-resistant staphylococcus aureus 870307 after 18 hrs by broth microdilution method; type: functional
[3] = target: T1, Sensor histidine kinase WalK (Bacillus subtilis (strain 168), UniProt Q45614); assay: Inhibition of Bacillus subtilis histidine kinase YycG
T1 sequence (Q45614 whole entry): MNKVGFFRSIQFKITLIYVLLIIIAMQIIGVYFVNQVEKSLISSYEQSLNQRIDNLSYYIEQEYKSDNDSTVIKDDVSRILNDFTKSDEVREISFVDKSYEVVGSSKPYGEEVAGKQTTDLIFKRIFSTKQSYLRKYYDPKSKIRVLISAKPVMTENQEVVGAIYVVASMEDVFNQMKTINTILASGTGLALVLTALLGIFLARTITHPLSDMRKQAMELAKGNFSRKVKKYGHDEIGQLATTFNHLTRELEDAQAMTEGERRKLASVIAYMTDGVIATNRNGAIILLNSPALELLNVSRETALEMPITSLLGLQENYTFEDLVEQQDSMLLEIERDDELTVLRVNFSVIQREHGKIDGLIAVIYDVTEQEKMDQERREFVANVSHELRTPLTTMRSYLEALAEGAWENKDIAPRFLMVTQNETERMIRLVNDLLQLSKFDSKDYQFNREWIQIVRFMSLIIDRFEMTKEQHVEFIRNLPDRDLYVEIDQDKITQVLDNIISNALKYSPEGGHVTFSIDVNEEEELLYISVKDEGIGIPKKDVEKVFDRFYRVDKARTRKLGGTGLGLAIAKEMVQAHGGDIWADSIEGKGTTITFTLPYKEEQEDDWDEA

SMILES | MIC [1] [µg/mL] | MIC [2] [µg/mL] | IC50 [3]
C/C(Br)=C\CC/C(C)=C/CC(C)(C)/C=C/C(=O)N[C@H](C(=O)O)[C@@H](C)O | > 100 | > 100 | > 1200 µM
C/C(Br)=C\CC/C(C)=C/CC(C)(C)/C=C/C(=O)N[C@@H](Cc1c[nH]c2ccccc12)C(=O)O | 50 (≈ 99.7 µM) | 100 (≈ 199 µM) | 43.9 µM
CCCCN(CCCC)C(=O)/C=C/C(C)(C)C/C=C(\C)CC/C=C(\C)Br | > 100 | > 100 | > 1170 µM
COC(=O)[C@H](CO)NC(=O)/C=C/C(C)(C)C/C=C(\C)CC/C=C(\C)Br | > 100 | > 100 | < 600 µM
COC(=O)[C@H](Cc1ccccc1)NC(=O)/C=C/C(C)(C)C/C=C(\C)CC/C=C(\C)Br | > 100 | > 100 | > 1050 µM
COC(=O)[C@H](CC(C)C)NC(=O)/C=C/C(C)(C)C/C=C(\C)CC/C=C(\C)Br | > 100 | > 100 | > 1130 µM
COC(=O)[C@H](Cc1ccc(O)cc1)NC(=O)/C=C/C(C)(C)C/C=C(\C)CC/C=C(\C)Br | > 100 | > 100 | > 1020 µM
C/C(Br)=C\CC/C(C)=C/CC(C)(C)/C=C/C(=O)O | > 100 | > 100 | 63.4 µM and 63.5 µM
CCCCCCCCN(CCCCCCCC)C(=O)/C=C/C(C)(C)C/C=C(\C)CC/C=C(\C)Br | > 100 | > 100 | > 928 µM
COC(=O)CNC(=O)/C=C/C(C)(C)C/C=C(\C)CC/C=C(\C)Br | > 100 | > 100 | > 1290 µM
COC(=O)/C=C/C(C)(C)C/C=C(\C)CC/C=C(\C)Br | > 100 | > 100 | > 1520 µM
COC(=O)[C@H](CCC(=O)O)NC(=O)/C=C/C(C)(C)C/C=C(\C)CC/C=C(\C)Br | > 100 | > 100 | > 1090 µM
C/C(Br)=C\CC/C(C)=C/CC(C)(C)/C=C/C(=O)N[C@@H](CO)C(=O)O | > 100 | > 100 | < 621 µM
COC(=O)[C@H](Cc1c[nH]c2ccccc12)NC(=O)/C=C/C(C)(C)C/C=C(\C)CC/C=C(\C)Br | > 100 | > 100 | > 970 µM
C/C(Br)=C\CC/C(C)=C/CC(C)(C)/C=C/CO | > 100 | > 100 | > 1660 µM
C/C(Br)=C\CC/C(C)=C/CC(C)(C)/C=C/C(=O)NCC(=O)O | > 100 | > 100 | < 671 µM
COC(=O)[C@@H](NC(=O)/C=C/C(C)(C)C/C=C(\C)CC/C=C(\C)Br)C(C)C | > 100 | > 100 | > 1170 µM
CSCC[C@H](NC(=O)/C=C/C(C)(C)C/C=C(\C)CC/C=C(\C)Br)C(=O)O | > 100 | > 100 | < 560 µM
CC[C@H](C)[C@H](NC(=O)/C=C/C(C)(C)C/C=C(\C)CC/C=C(\C)Br)C(=O)O | > 100 | > 100 | > 1170 µM
COC(=O)[C@H](Cc1cnc[nH]1)NC(=O)/C=C/C(C)(C)C/C=C(\C)CC/C=C(\C)Br | > 100 | > 100 | > 1070 µM
C/C(Br)=C\CC/C(C)=C/CC(C)(C)/C=C/C(=O)N1CCC[C@H]1C(=O)O | > 100 | > 100 | < 606 µM

SMILES | MIC [1] [µg/mL] | MIC [2] [µg/mL] | IC50 [3]
COC(=O)[C@H](CC(=O)O)NC(=O)/C=C/C(C)(C)C/C=C(\C)CC/C=C(\C)Br | > 100 | > 100 | > 1130 µM
C/C(Br)=C\CC/C(C)=C/CC(C)(C)/C=C/C(=O)N[C@@H](CC(C)C)C(=O)O | > 100 | > 100 | > 1170 µM
C/C1=C\CC(C)(C)/C=C/C(=O)/C(C)=C/CC1 [ZERUMBONE] | > 100 | > 100 | > 2290 µM
C/C(Br)=C\CC/C(C)=C/CC(C)(C)/C=C/C(=O)N[C@@H](Cc1cnc[nH]1)C(=O)O | > 100 | > 100 | < 553 µM
C/C(Br)=C\CC/C(C)=C/CC(C)(C)/C=C/C(=O)N[C@@H](CCC(N)=O)C(=O)O | > 100 | > 100 | < 564 µM
CC[C@H](C)[C@H](NC(=O)/C=C/C(C)(C)C/C=C(\C)CC/C=C(\C)Br)C(=O)OC | > 100 | > 100 | > 1130 µM
C/C(Br)=C\CC/C(C)=C/CC(C)(C)/C=C/C(=O)N[C@H](C(=O)O)C(C)C | > 100 | > 100 | < 603 µM
C/C(Br)=C\CC/C(C)=C/CC(C)(C)/C=C/C(=O)N[C@@H](Cc1ccc(O)cc1)C(=O)O | > 100 | > 100 | < 523 µM
C/C(Br)=C\CC/C(C)=C/CC(C)(C)/C=C/C(=O)N1CCCCC1 | > 100 | > 100 | > 1310 µM
COC(=O)[C@H](CCC(N)=O)NC(=O)/C=C/C(C)(C)C/C=C(\C)CC/C=C(\C)Br | > 100 | > 100 | 1090 µM
COC(=O)[C@H](CC(N)=O)NC(=O)/C=C/C(C)(C)C/C=C(\C)CC/C=C(\C)Br | > 100 | > 100 | 1130 µM
CCCCCCCCOC(=O)/C=C/C(C)(C)C/C=C(\C)CC/C=C(\C)Br | > 100 | > 100 | > 1170 µM
COC(=O)[C@@H]1CCCN1C(=O)/C=C/C(C)(C)C/C=C(\C)CC/C=C(\C)Br | > 100 | > 100 | < 586 µM
COC(=O)[C@@H](NC(=O)/C=C/C(C)(C)C/C=C(\C)CC/C=C(\C)Br)[C@@H](C)O | > 100 | > 100 | > 1160 µM
COC(=O)[C@H](C)NC(=O)/C=C/C(C)(C)C/C=C(\C)CC/C=C(\C)Br | > 100 | > 100 | > 1250 µM
C/C(Br)=C\CC/C(C)=C/CC(C)(C)/C=C/C(=O)N[C@@H](C)C(=O)O | > 100 | > 100 | < 647 µM
C/C(Br)=C\CC/C(C)=C/CC(C)(C)/C=C/C(=O)N[C@@H](CC(N)=O)C(=O)O | > 100 | > 100 | < 582 µM
C/C(Br)=C\CC/C(C)=C/CC(C)(C)/C=C/C(=O)N[C@@H](CCC(=O)O)C(=O)O | > 100 | > 100 | < 563 µM
C/C(Br)=C\CC/C(C)=C/CC(C)(C)/C=C/C(=O)N[C@@H](Cc1ccccc1)C(=O)O | > 100 | > 100 | < 541 µM
C/C(Br)=C\CC/C(C)=C/CC(C)(C)/C=C/C(=O)N[C@@H](CC(=O)O)C(=O)O | > 100 | > 100 | < 581 µM
COC(=O)[C@H](CCSC)NC(=O)/C=C/C(C)(C)C/C=C(\C)CC/C=C(\C)Br | > 100 | > 100 | > 1090 µM
